Experimental data as given in publication PMC10888717, “Identification of Novel Non-Nucleoside Inhibitors of Zika Virus NS5 Protein Targeting MTase Activity” (International Journal of Molecular Sciences, 2024).
“Also recorded” adds a separate entry of the source.

Experiments:
[1] = Stability test in human plasma; type: in vitro ADME; settings: pH 7.4, 37 °C, up to 24 h, read-out: Plasma Stab. (T1/2, h ± SD) (converted)
Experimental: Finally, compounds were incubated in human plasma at 37 °C for 24 h. […] Taken together, stability studies confirmed that the series is suitable for further development.
(§1) For the ADME property determination, an Agilent 1260 Infinity HPLC-DAD interfaced with an Agilent MSD 6130 (Agilent Technologies, Palo Alto, CA, USA) was used. Chromatographic conditions were optimized using a Phenomenex Kinetex C18-100 Å column (150 × 4.6 mm) with 5 µm particle size and gradient elution with a binary solution (eluent A: H2O; eluent B: ACN; both eluents were acidified with formic acid 0.1% v/v) at room temperature. The LC analyses started with 5% of B (from t = 0 to t = 1 min), then B was increased to 95% (from t = 1 to t = 10 min) and then kept at 95% (from t = 10 to t = 19 min) and finally returned to initial conditions in 1.0 min. The flow rate was 0.6 mL/min and the injection volume was 10 µL.
A stock solution of the target compound in DMSO (2 mM) was incubated in a test tube with pooled human plasma (55.7 mg protein/mL) and HEPES buffer (25 mM, 140 mM NaCl pH 7.4) up to a final volume of 1.0 mL. The mixture was incubated at 37 °C, and at set time points (0.0, 0.5, 1, 4, 8, 24 h), samples of 50 µL were taken, mixed with 400 µL of ACN to stop the reaction of plasmatic esterases, and centrifuged at 5000 rpm for 15 min. The supernatant was removed and analyzed using the LC-UV/MS method previously described. The half-life (t½) was calculated according to the following equation: t½=ln 2/k where k represents the substrate elimination constant. For each compound, the determination was performed in three independent experiments.

[2] = Cytotoxicity assay (MTT) on Vero E6 cells; type: cell-based; settings: African green monkey; VERO E6 cells, MTT, 3 days; read-out: CC50 ± SD (half-maximal cytotoxic concentration)
Experimental: Compounds characterized by the best anti-enzymatic activity were tested against ZIKV in cellular assays. VERO E6 cells were infected with ZIKV at a multiplicity of infection (M.O.I.) of 0.1, and their activities were evaluated by a plaque reduction assay three days post-infection. Ribavirin was used as a reference compound. As reported in Table 2, compound 1, identified in the first screening, was unable to inhibit viral replication up to a 100 μM concentration. […] The cytotoxicity of the series was determined on the same cell line. […] Their selectivity indexes were calculated as the ratio between CC50 and IC50 values; the results highlight their promising safety profile.
Monolayers of 2.5 × 10^4 Vero E6 cells per well were grown in flat-bottom 96-well culture plates and allowed to adhere overnight. Then, when the cell layers were confluent, the medium was removed, the wells were washed twice with PBS, treated with 100 µL of DMEM with 10 µL DMSO alone (cell positive control) or with various concentrations of anti-NS5 inhibitory compounds under study (compound final concentrations of 100, 10, 1, 0.1, and 0.01 μM), and incubated for 3 days at 37 °C in a CO2. After treatment, an MTT (3-(4,5-dimethylthiazol-2-yl)-2,5-diphenyltetrazolium bromide) kit (Roche, Milan, Italy) was used according to the supplier’s instructions, and the absorbance of each well was determined using a microplate spectrophotometer at a wavelength of 570 nm. Cytotoxicity was calculated by dividing the average optical density of treated samples by the average of DMSO-treated samples (cell positive control).

[3] = Median lethal dose assessment in Tenebrio molitor coleoptera; type: in vivo; settings: in vivo, 200 mg/kg, single dose into hemocoel, 7 days observation
Experimental: (§2) The median lethal dose (LD50) was determined for compound 17 in a Tenebrio molitor coleoptera (TMC) toxicity model published previously. Due to ethical reasons, and according to the 3Rs principle, the insect model was preferred to the murine model to preliminarily evaluate the potential in vivo toxicity. […] The experiment was repeated until LD50 was determined and finally confirmed with ten TMCs. […] Even if complete pharmacokinetics should be performed to determine plasmatic levels, the administered concentration was higher than IC50. Considering that no antiviral efficacy models have been developed in insects, future studies with optimized compounds should be translated into suitable models (i.e., mice).
(§3) Tenebrio molitor coleoptera (TMC) and pupae for acute toxicity tests were fed at the University of Siena (Siena, Italy) on a diet previously published. Pupae and adult TMC were reared in semi-dark conditions at a temperature of 27 ± 1 °C and a relative humidity (RH) of 40–50%.
(§4) Median lethal dose assessment was carried out as previously published. Three days after the mutation, TMCs were randomly chosen. The appropriate amount of compound 17 was solubilized at the appropriate dose expressed in mg/kg of insect weight. […]

[4] = tested on: Tenebrio molitor coleoptera (TMC); assay: as above; type: in vivo; settings: acute administration
Experimental: as §2, §3, §4

ZIKV = ZIKV inhibitory viral plaque reduction assay in Vero E6 cells; type: cell-based, Zika virus
[5] = Metabolic stability in human liver microsomes; type: in vitro ADME; settings: 1 h, 37 °C, three experiments
Experimental: The metabolic stability was investigated by incubating selected compounds with human liver microsomes (HLMs) for 1 h at 37 °C. The percentage of non-metabolized compounds and metabolites was analyzed by HPLC-UV-MS. […] HPLC analysis confirmed the presence of the oxidated metabolites in small percentages.
as §1
The test was performed as previously reported with minor modifications. Each compound was dissolved in DMSO and phosphate buffer (0.025 M, pH 7.4), and human liver microsomes (0.2 mg/mL) and a NADPH-regenerating system in MgCl2 48 mM were added to a final volume of 500 µL. This solution was incubated for 1 h at 37 °C and then the reaction was stopped and quenched using 1 mL of ACN. The reaction mixtures were then centrifuged (4000 rpm for 10 min) and the supernatant was taken, dried under nitrogen flow, and then resuspended in 100 µL of methanol. The parent drug and metabolites were subsequently determined using the chromatographic conditions described above. The percentage of non-metabolized compounds was calculated by comparison with reference solutions. The determination of metabolic stability for each compound was performed in three independent experiments.

With `CN1C(=O)c2ccc(NC(=O)c3cc4cccc(Cl)c4s3)cc2C1=O` [Compound 17] the half-life [1] was > 24 h, the CC50 at 3 days [2] was > 100000 nM and the LD50 at 7 days [3] was 150 mg/kg. The “in vivo toxicity (in words)” value [4] was “well tolerated; also recorded: less toxic than commonly used drugs such as paracetamol and carbamazepine”, the “SI (Selectivity Index, ratio between CC50 and IC50)” value (ZIKV; VERO E6 cells) was >200 and the IC50 (ZIKV; Zika virus, Vero C1008, read-out: IC50 ± SD (half-maximal inhibitory concentration, ZIKV plaque reduction)) was 500 ± 100 nM. For the same molecule, the “HLM Stab.% ± SD (percentage of non-metabolized compound)” value [5] was 96.39 ± 0.11%.
